Format in all cases: cell-based
Test [1] deals with Pseudomonus aeruginsoa Y-1. The test can be described thus: Minimum inhibitory concentration against Pseudomonus aeruginsoa Y-1. As to conditions: Pseudomonas aeruginosa, Y1.
The test system of test [2] is Escherichia coli JC-2. Description: Minimum inhibitory concentration against Escherichia coli JC-2. The note with it: JC2.
Test [3] relates to Klebsiella pneumoniae KC-1. Description: Minimum inhibitory concentration against Klebsiella pneumoniae KC-1. The note with it: KC1.
The subject of test [4] is Pseudomonus aeruginosa GN1036. The test can be described thus: Minimum inhibitory concentration against Pseudomonus aeruginosa GN1036. The note with it: Pseudomonas aeruginosa.
The subject of test [5] is Staphylococcus aureus JC-1. The test can be described thus: Minimum inhibitory concentration against Staphylococcus aureus JC-1. The note with it: JC1.
In test [6] the test system is Proteus vulgaris GN-76. Description: Minimum inhibitory concentration against Proteus vulgaris GN-76. As to conditions: GN76.

The structures appear in SMILES notation. In brackets after ≈: the same amount, converted by molar mass.

Regarding `CC(=O)Oc1ccc(C(=O)O/N=C(\C(=O)N[C@@H]2C(=O)N3C(C(=O)O)=C(CSc4nnnn4CC(=O)O)CS[C@H]23)c2coc(N)n2)cc1OC(C)=O` [Example 7, 7β-[2-(2-aminooxazol-4-yl)-2-Z-(3,4-diacetoxybenzoyloxyimino)acetamido]-3-(1-carboxymethyl-1H-tetrazol-5-yl)thiomethyl-3-cephem-4-carboxylic acid], the MIC (as a rule, the lowest concentration that inhibits growth of the organism) in test [1] is below 0.05 µg/mL; in test [2], 0.05 µg/mL (≈ 0.0671 µM); in test [3], below 0.05 µg/mL; in test [4], 0.05 µg/mL (≈ 0.0671 µM); in test [5], 12.5 µg/mL (≈ 16.8 µM); in test [6], 0.1 µg/mL (≈ 0.134 µM).

As to `CC(=O)Oc1ccc(C(=O)CO/N=C(\C(=O)N[C@@H]2C(=O)N3C(C(=O)O)=C(CSc4nnnn4CC(=O)O)CS[C@H]23)c2coc(N)n2)cc1OC(C)=O` [Example 3, 7β-[2-(2-aminooxazol-4-yl)-2-Z-(3,4-diacetoxybenzoylmethoxyimino)]acetamido-3-(1-carboxymethyl-1H-tetrazol-5-yl)thiomethyl-3-cephem-4-carboxylicacid], the MIC in test [1] was below 0.05 µg/mL; in test [2], 0.2 µg/mL (≈ 0.263 µM); in test [3], 0.05 µg/mL (≈ 0.0658 µM); in test [4], 0.2 µg/mL (≈ 0.263 µM); in test [5] it was 12.5 µg/mL (≈ 16.5 µM); in test [6], 1.56 µg/mL (≈ 2.05 µM).

For `CC(=O)Oc1cc(C(=O)O/N=C(\C(=O)N[C@@H]2C(=O)N3C(C(=O)O)=C(CSc4nnnn4C)CS[C@H]23)c2coc(N)n2)cc(OC(C)=O)c1OC(C)=O` [Example 8, 7β-[2-(2-aminooxazol-4-yl)-2-Z-(3,4,5-triacetoxybenzoyloxyimino)acetamido]-3-(1-methyl-1H-tetrazol-5-yl)thiomethyl-3-cephem-4-carboxylic acid], the MIC in test [1] was found to be 0.1 µg/mL (≈ 0.132 µM); in test [2], 0.1 µg/mL (≈ 0.132 µM); in test [3] it was 0.1 µg/mL (≈ 0.132 µM); in test [4], 0.39 µg/mL (≈ 0.513 µM); in test [5], 1.56 µg/mL (≈ 2.05 µM); in test [6], 0.39 µg/mL (≈ 0.513 µM).

`CC(=O)OCC1=C(C(=O)O)N2C(=O)[C@@H](NC(=O)/C(=N\OC(=O)c3ccc(OC(C)=O)c(OC(C)=O)c3)c3coc(N)n3)[C@H]2SC1` [Example 4, 7β-[2-(2-aminooxazol-4-yl)-2-Z-(3,4-diacetoxybenzoyloxyimino)acetamido]cephalosporanic acid]: the MIC worked out at 0.1 µg/mL (≈ 0.155 µM) in test [1]; 0.2 µg/mL (≈ 0.31 µM) in test [2]; 0.2 µg/mL (≈ 0.31 µM) in test [3]; 0.78 µg/mL (≈ 1.21 µM) in test [4]; 1.56 µg/mL (≈ 2.42 µM) in test [5]; 0.39 µg/mL (≈ 0.604 µM) in test [6].

For the compound `CC(=O)Oc1cc(C(=O)O/N=C(\C(=O)N[C@@H]2C(=O)N3C(C(=O)O)=C(CSc4nnnn4CC(=O)O)CS[C@H]23)c2coc(N)n2)cc(OC(C)=O)c1OC(C)=O` [Example 10, 7β-[2-(2-aminooxazol-4-yl)-2-Z-(3,4,5-triacetoxybenzoyloxyimino)acetamido]-3-(1-carboxymethyl-1H-tetrazol-5-yl)thiomethyl-3-cephem-4-carboxylic acid], the MIC in test [1] amounted to 0.1 µg/mL (≈ 0.124 µM); in test [2] it was 0.05 µg/mL (≈ 0.0622 µM); in test [3] it was 0.2 µg/mL (≈ 0.249 µM); in test [4], 0.39 µg/mL (≈ 0.485 µM); in test [5] it was 6.25 µg/mL (≈ 7.78 µM); in test [6], 0.05 µg/mL (≈ 0.0622 µM).

With `CC(=O)Oc1ccc(C(=O)O/N=C(\C(=O)N[C@@H]2C(=O)N3C(C(=O)O)=C(CSc4nnc(C)s4)CS[C@H]23)c2coc(N)n2)cc1OC(C)=O` [Example 6, 7β-[2-(2-aminooxazol-4-yl)-2-Z-(3,4-diacetoxybenzoyloxyimino)acetamido]-3-(2-methyl-1,3,4-thiadiazol-5-yl)thiomethyl-3-cephem-4-carboxylic acid], the MIC is 0.1 µg/mL (≈ 0.139 µM) in test [1]; 0.2 µg/mL (≈ 0.279 µM) in test [2]; 0.05 µg/mL (≈ 0.0697 µM) in test [3]; 0.39 µg/mL (≈ 0.543 µM) in test [4]; 3.12 µg/mL (≈ 4.35 µM) in test [5]; 0.2 µg/mL (≈ 0.279 µM) in test [6].

Regarding `CC(=O)OCC1=C(C(=O)O)N2C(=O)[C@@H](NC(=O)/C(=N\OCC(=O)c3ccc(OC(C)=O)c(OC(C)=O)c3)c3coc(N)n3)[C@H]2SC1` [Example 1, 7β-[2-(2-aminooxazol-4-yl)-2-Z-(3,4-diacetoxybenzoylmethoxyimino)acetamido]cephalosporanic acid], the MIC in test [1] turned out to be 0.1 µg/mL (≈ 0.152 µM); in test [2], 0.78 µg/mL (≈ 1.18 µM); in test [3], 0.2 µg/mL (≈ 0.303 µM); in test [4] it was 0.78 µg/mL (≈ 1.18 µM); in test [5], 3.12 µg/mL (≈ 4.73 µM); in test [6] it was 1.56 µg/mL (≈ 2.37 µM).

In the case of `CC(=O)Oc1ccc(C(=O)O/N=C(\C(=O)N[C@@H]2C(=O)N3C(C(=O)O)=C(CSc4nnnn4C)CS[C@H]23)c2coc(N)n2)cc1OC(C)=O` [Example 5, 7β-[2-(2-aminooxazol-4-yl)-2-Z-(3,4-diacetoxybenzoyloxyimino)acetamido]-3-(1-methyl-1H-tetrazol-5-yl)thiomethyl-3-cephem-4-carboxylic acid], the MIC in test [1] is 0.1 µg/mL (≈ 0.143 µM); in test [2], 0.39 µg/mL (≈ 0.556 µM); in test [3] it was 0.2 µg/mL (≈ 0.285 µM); in test [4] it was 0.39 µg/mL (≈ 0.556 µM); in test [5], 1.56 µg/mL (≈ 2.22 µM); in test [6], 0.39 µg/mL (≈ 0.556 µM).

On to `CC(=O)Oc1ccc(C(=O)CO/N=C(\C(=O)N[C@@H]2C(=O)N3C(C(=O)O)=C(CSc4nnnn4C)CS[C@H]23)c2coc(N)n2)cc1OC(C)=O` [Example 2, 7β-[2-(2-aminooxazol-4-yl)-2-Z-(3,4-diacetoxybenzoylmethoxyimino)acetamido]-3-(1-methyl-1H-tetrazol-5-yl)thiomethyl-3-cephem-4-carboxylic acid], for which the MIC turned out to be 0.05 µg/mL (≈ 0.0699 µM) in test [1]; 0.2 µg/mL (≈ 0.279 µM) in test [2]; 0.05 µg/mL (≈ 0.0699 µM) in test [3]; 0.2 µg/mL (≈ 0.279 µM) in test [4]; 3.12 µg/mL (≈ 4.36 µM) in test [5]; 1.56 µg/mL (≈ 2.18 µM) in test [6].

For the compound `CCOC(=O)Oc1ccc(C(=O)O/N=C(\C(=O)N[C@@H]2C(=O)N3C(C(=O)O)=C(CSc4nnnn4C)CS[C@H]23)c2coc(N)n2)cc1OC(=O)OCC` [Example 9, 7β-[2-(2-aminooxazol-4-yl)-2-Z-(3,4-diethoxycarbonyloxybenzoyloxyimino)acetamido]-3-(1-methyl-1H-tetrazol-5-yl)thiomethyl-3-cephem-4-carboxylic acid], the MIC in test [1] was found to be 0.05 µg/mL (≈ 0.0656 µM); in test [2] it was 0.2 µg/mL (≈ 0.263 µM); in test [3] it was 0.05 µg/mL (≈ 0.0656 µM); in test [4], 0.2 µg/mL (≈ 0.263 µM); in test [5] it was 3.12 µg/mL (≈ 4.1 µM); in test [6], 0.2 µg/mL (≈ 0.263 µM).

Take `CO/N=C(\C(=O)N[C@@H]1C(=O)N2C(C(=O)O)=C(COC(C)=O)CS[C@H]12)c1csc(N)n1` [Cefotaxime, reference compound]: the MIC in test [1] turned out to be 12.5 µg/mL (≈ 27.4 µM); in test [2] it was 0.1 µg/mL (≈ 0.22 µM); in test [4], 12.5 µg/mL (≈ 27.4 µM); in test [5], 6.25 µg/mL (≈ 13.7 µM); in test [6], 0.05 µg/mL (≈ 0.11 µM).

The values above are taken from US4691014A, “Cephalosporin compounds” (Kaken Pharmaceutical Co., Ltd., priority 1984, dated 1987).
